According to article PMC11117716 (Biomolecules, 2024):

How the values were obtained:
[1] = Population pharmacokinetic analysis (Nonmem) in healthy volunteers and Alzheimer's and Parkinson's patients; format: in vivo, human; conditions: popPK
Experimental: Population pharmacokinetic analysis was conducted using data from healthy volunteers from Study 101 (single ascending dose study with 72 subjects) and Study 102 (multiple dose study with 48 volunteers) and in patients (multiple dose study in 68 patients with early Alzheimer’s or early Parkinson’s disease). Data were fit using a Bayesian approach as implemented in the software package Nonmem® (version 7.5.1, Icon Development Solutions, Dublin, Ireland). Standard model building approaches were used. After a base model was established, covariates were evaluated singly and assessed graphically using eta plots—The full model consisted of all statistically significant covariates identified during the single covariate evaluation phase, and back elimination was conducted. Each covariate was removed from the full model, and the impact of that removal was assessed based on model output. The final model performance was assessed graphically and using simulation with a visual predictive check (VPC). […]
The asymptotic standard errors (SEs) and nonparamet ric bootstrapped confidence intervals (CIs) estimated the parameter precision. Other model statistics were evaluated, such as etabar and associated p values. […]
substantial skewness or kurtosis; therefore, transforms were not evaluated. […]
Plasma concentration data were evaluated using an LTBS approach. […]

[2] = Plasma pharmacokinetics after oral Posiphen in CD-1 mice (LC-MS/MS); conditions: for Mean plasma concentration: CD-1 mice, Posiphen 65 mg/kg
Experimental: The animal PKs were taken from multiple GLP toxicology studies, biomarker studies, and efficacy studies. […] Sample size (n) represents the number of animals at each time point of sample collection. […] The dose volume was determined according to animals’ weight collected on the dosing day.
In mice, blood samples were collected via the saphenous vein or other suitable blood collection site into a microcentrifuge tube containing the anti-coagulant K2-EDTA on wet ice and processed for plasma. For samples collected within the first hour of dosing, ±1 min is acceptable, while for all other timepoints, samples were taken within 5% of the scheduled time and are not considered as protocol deviations. Plasma samples were centrifuged (3200× g for 10 min at 4 °C) within an hour of collection. CSF samples were collected with 3 μL volume per time point, frozen on dry ice, and stored at −60 °C for further analysis. For brain collection in mice, animals were euthanized using CO2 inhalation. Whole brain was collected, washed in cold saline, dried, and homogenized immediately […]. Homogenizing buffer MeOH/15 mM PBS (1:2, v:v) was used at a ratio of 1:9 (1 g of tissue with 9 mL of buffer; the dilution ratio is 10).
In humans, the bioanalytical method was performed in accordance with current FDA, Industry Guidelines, and OECD Principles. […] The sample analysis was conducted in accordance with current GCP and GLP principles, and the results were presented for pharmacokinetic profiling (Absorption Systems, Exton, PA, USA). Calibration ranges for each analyte ranged from 1000 ng/mL to 1 ng/mL (or ng/g for brain) in plasma, brain, and CSF matrices. The detection limit was 0.025 ng/mL. The following PK parameters were collected for the purpose of this manuscript: maximum concentration (Cmax), time to maximum drug concentration (Tmax), half-life (T1/2), and the Area Under the Curve (AUC).
Blood plasma samples were collected at various time points within the initial 8 h following administration (6 h for humans). Plasma concentrations (ng/mL) were measured over the 8 h observation window to characterize the maximum concentration (Cmax), the time to peak drug concentration (Tmax), the half-life (T1/2), and the Area Under the Curve (AUC).

[3] = tested on: neurotoxic aggregating proteins; conditions: cited from earlier work
acetylcholinesterase = conditions: cited from earlier work
[4] = Plasma pharmacokinetics after oral Posiphen in Beagle dogs (LC-MS/MS); design: species or system dog; conditions: for Mean plasma concentration: Beagle dogs, Posiphen 20 mg/kg; for Tmax: dog plasma, Posiphen PO 20 mg/kg, n = 12
Experimental: In rats and dogs, blood samples were centrifuged, and the resultant plasma was separated, and 200 µL (rat) or 400 µL (dog) of plasma was transferred to uniquely labeled pre-chilled polypropylene tubes containing 5 µL (rat) or 10 µL (dog) Dichlorvos spiking solution (nominal concentration of 0.82 mg/mL in MeOH/Water, 20/80, v/v).
(§1) The detection limit was 0.025 ng/mL.

[5] = Posiphen pharmacokinetics compared across species (mouse, rat, dog, human); format: in vivo
Experimental: This paper describes data from multiple studies.
as §1

[6] = both, CD-1, mouse, in vivo, po, 65 mg/kg
[7] = both sexes, Beagle, dog, in vivo, po, 20 mg/kg

Question: For `CN1CC[C@]2(C)c3cc(OC(=O)Nc4ccccc4)ccc3N(C)C12.O=C(O)C(O)C(O)C(=O)O` (stereo partly drawn) [Posiphen, (3aR)-1,3a, 8-trimethyl-1,2,3,3a, 8,8a-hexahydropyrrolo (2,3-b) indol-5-yl phenylcarbamate tartrate], which Km ([1]; human, plasma, oral, as dose increased from 0.04 to 2.4 mg/kg, read-out: Michaelis constant (km)) is on record?
Answer: Its Km is 0.01 to 0.015 µg/mL.

Question: And the “Variability in absorption, metabolism and clearance between healthy subjects and Alzheimer's or Parkinson's patients” value [1]?
Answer: The value was “no variability”.

Question: And the Mean plasma concentration ([2]; 0.25 h)?
Answer: Its Mean plasma concentration is 937 ng/mL.

Question: And the Mean plasma concentration ([2]; 0.5 h)?
Answer: Its Mean plasma concentration is 939 ng/mL.

Question: What about the Mean plasma concentration ([2]; 1 h) of the same compound?
Answer: The Mean plasma concentration was 610 ng/mL.

Question: And the Mean plasma concentration ([2]; 2 h)?
Answer: The Mean plasma concentration was 571 ng/mL.

Question: And the Mean plasma concentration ([2]; 4 h)?
Answer: The Mean plasma concentration was 19.5 ng/mL.

Question: And the “AUC(0-t)” value ([2]; Table 2, mouse plasma, oral Posiphen)?
Answer: The value was 1707 ng·h/mL.

Question: And the AUC(0-t) [2, 6]?
Answer: Its AUC(0-t) is 1710 ng·h/mL.

Question: And the Cmax [2, 6]?
Answer: The Cmax was 939 ng/mL.

Question: What about the half-life ([2]; both, CD-1, mouse, in vivo, po, 65 mg/kg, T1/2, mouse plasma, Posiphen PO 65 mg/kg, n = 7) of the same compound?
Answer: Its half-life is 0.56 h.

Question: What about the Tmax ([2]; both, CD-1, mouse, in vivo, po, 65 mg/kg, Tmax, mouse plasma, Posiphen PO 65 mg/kg, n = 7) of the same compound?
Answer: The Tmax was less than 1 h.

Question: What about the T1/2 ([2]; mouse plasma, Posiphen PO 65 mg/kg, n = 7, 65 mg/kg) of the same compound?
Answer: Its T1/2 is 0.562 h.

Question: What about the TINAP activity [3] of the same compound?
Answer: Its TINAP activity is “have TINAP”.

Question: And the “Acetylcholinesterase inhibitory (AChEI) activity” value (acetylcholinesterase)?
Answer: Its value is “no acetylcholinesterase inhibitory (AChEI) activity”.

Question: And the Mean plasma concentration ([4]; 0.25 h)?
Answer: Its Mean plasma concentration is 2.34 ng/mL.

Question: What about the Mean plasma concentration ([4]; 0.5 h) of the same compound?
Answer: The Mean plasma concentration was 241 ng/mL.

Question: What about the Mean plasma concentration ([4]; 1 h) of the same compound?
Answer: Its Mean plasma concentration is 326 ng/mL.

Question: And the Mean plasma concentration ([4]; 2 h)?
Answer: The Mean plasma concentration was 203 ng/mL.

Question: What about the Mean plasma concentration ([4]; 4 h) of the same compound?
Answer: The Mean plasma concentration was 32.3 ng/mL.

Question: And the Mean plasma concentration ([4]; 8 h)?
Answer: The Mean plasma concentration was 4.4 ng/mL.

Question: And the Mean plasma concentration ([4]; 12 h)?
Answer: Its Mean plasma concentration is 1.27 ng/mL.

Question: And the Cmax [4, 7]?
Answer: Its Cmax is 402 ng/mL.

Question: And the half-life [4, 7]?
Answer: Its half-life is 1.96 h.

Question: What about the Tmax ([4]; both sexes, Beagle, dog, in vivo, po, 20 mg/kg, read-out: Tmax) of the same compound?
Answer: Its Tmax is 1 to 2 h.

Question: And the AUC(0-t) ([4]; both sexes, Beagle, dog, in vivo, po, 20 mg/kg, read-out: AUC (0–8 h))?
Answer: The AUC(0-t) was 756 ng·h/mL.

Question: What about the Tmax ([4]; 20 mg/kg) of the same compound?
Answer: Its Tmax is 1.18 h.

Question: And the half-life ([5]; CSF or brain, oral)?
Answer: The half-life was greater than 12 h.

Question: And the Time to peak ([5]; all analyzed species: mouse, rat, dog, human)?
Answer: The Time to peak was no more than 2 h.
